In patent US11536729B2, “Method of identifying novel protein aggregation inhibitors based on chemical kinetics” (Cambridge Enterprise Limited, priority 2016, dated 2022):

Experiments:
Type in all cases: biochemical
[1] = target: T1, Aβ42 (Homo sapiens, UniProt P05067); assay: ThT Aβ42 aggregation kinetics with 10% pre-formed fibril seeds (elongation dominant); settings: 2 μM Aβ42, 10-fold excess
T1 construct: The recombinant Aβ (M1-42) peptide; made in house; host or cells: E. coli BL21 Gold (DE3)
Procedure: (§1) Samples were then collected from the wells into low-binding tubes and sonicated for 2 min in a sonicator bath at room temperature. Under the considered conditions (i.e. 4 μM Aβ42), the monomer concentration is negligible at equilibrium (31). The final concentration of fibrils, in monomer equivalents, was considered equal to the initial concentration of monomer. Fibrils were then added to freshly prepared monomer in order to reach either 5% or 10% fibrils final concentration.
(§2) Assays were initiated by placing the 96-well plate at 37° C. under quiescent conditions in a plate reader (Fluostar Omega, Fluostar Optima or Fluostar Galaxy, BMGLabtech, Offenburg, Germany). The ThT fluorescence was measured through the bottom of the plate with a 440 nm excitation filter and a 480 nm emission filter. The ThT fluorescence was followed for three repeats of each sample. […]
Target sequence in this assay (P05067 672-713 limits assumed): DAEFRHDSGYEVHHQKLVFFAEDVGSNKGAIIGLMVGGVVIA

[2] = target: T2, Aβ42 fibrils (Homo sapiens, UniProt P05067); assay: Dot blot assay with fibril-specific OC antibody (label-free fibril formation); settings: 2 μM Aβ42, 4-fold excess
T2 construct: The recombinant Aβ (M1-42) peptide; made in house; host or cells: E. coli BL21 Gold (DE3)
Procedure: Blotting was performed using either Aβ42 fibril-specific antibody (OC, Millipore) or Aβ42 sequence-specific antibody (W0-2, Millipore). […] Aβ42 aliquots were spotted onto a nitrocellulose membrane (0.2 μm, Whatman) and then the membranes were dried and then blocked with Blocking One (Nacalai tesque) before immuno-detection. OC and W0-2 were used according to the manufacturers instructions. Alexa Fluor® 488-conjugated secondary antibodies (Life technologies) were subsequently added and fluorescence detection was performed using Typhoon Trio Imager (GE Healthcare). […] For the calibration curve (FIG. 3d), a series of dilutions between 4 μM and 0.1 μM were performed on freshly prepared Aβ42 fibrils and 4 μL aliquots were deposited onto the same nitrocellulose membrane (0.2 μm, Whatman) as the one used for OC fibril-specific antibody. […] However, under these conditions we could not detect oligomers due to their very low concentration during Aβ42 aggregation even when depositing on the membrane volumes as high as 20 μL.

[3] = target: T1, Aβ42; assay: ThT Aβ42 aggregation kinetics with 1-5% pre-formed fibril seeds (surface-catalyzed secondary nucleation); settings: 2 μM Aβ42, 0.5- and 5-fold excess
Procedure: For the seeded experiments, preformed fibrils were prepared just prior to the experiment. Kinetic experiments were set up just as above for a […] Aβ42 samples in 20 mM sodium phosphate buffer, pH 8 with 200 μM EDTA, 0.02% NaN3 and 20 μM ThT. The ThT fluorescence was monitored for 3 hours to verify the formation of fibrils.
as §1, §2
Target sequence in this assay (P05067 672-713 limits assumed): as above
For the seeded experiments, preformed fibrils were prepared just prior to the experiment. […] The ThT fluorescence was monitored for 3 hours to verify the formation of fibrils. […]

[4] = target: T1, Aβ42; assay: ThT-based Aβ42 aggregation kinetics under quiescent (unseeded) conditions
Procedure: Solutions of monomeric peptides were prepared by dissolving the lyophilized Aβ42 peptide in 6 M GuHCl. Monomeric forms were purified from potential oligomeric species and salt using a Superdex 75 10/300 GL column (GE Healthcare) at a flowrate of 0.5 mL/min, and were eluted in 20 mM sodium phosphate buffer, pH 8 supplemented with 200 μM EDTA and 0.02% NaN3. The center of the peak was collected and the peptide concentration was determined from the absorbance of the integrated peak area using ε280=1400 l mol^−1 cm^−1. The obtained monomer was diluted with buffer to the desired concentration and supplemented with 20 μM Thioflavin T (ThT) from a 1 mM stock. All samples were prepared in low binding eppendorf tubes on ice using careful pipetting to avoid introduction of air bubbles. Each sample was then pipetted into multiple wells of a 96-well half-area, low-binding, clear bottom and PEG coating plate (Corning 3881), 80 μL per well.
We verified that the addition of 1% DMSO in the reaction mixture has no effect on Aβ42 aggregation.
Assays were initiated by placing the 96-well plate at 37° C. under quiescent conditions in a plate reader (Fluostar Omega, Fluostar Optima or Fluostar Galaxy, BMGLabtech, Offenburg, Germany). The ThT fluorescence was measured through the bottom of the plate with a 440 nm excitation filter and a 480 nm emission filter. The ThT fluorescence was followed for three repeats of each sample.
The time evolution of the total fibril mass concentration, M(t), is described by the following integrated rate law (30, 32)
(§3) [formula] where the kinetic parameters B±, C±, κ, κ∞ and ? are functions of the two ? combinations of the microscopic rate constants k+k2 and knk2, where kn, k+ and k2 are the primary nucleation, elongation and secondary nucleation rate constants, respectively.
The time evolution of the total fibril mass concentration, M(t), is described by the following integrated rate law
as §3, with “two” for “two ?”, “respectively. Aβ42 alone in 1% DMSO was first modeled to obtain the k+k2 and knk2 combined microscopic rate constants.” for “respectively.”
Target sequence in this assay (P05067 671-713): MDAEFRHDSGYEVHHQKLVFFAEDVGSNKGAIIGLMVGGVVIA
With the introduction of different small molecules, the aggregation process can be inhibited by one or more individual microscopic reactions. Microscopic rate constants k+k2 and knk2 were obtained in the presence of the molecules, and compared to the initial values of Aβ42 alone. This comparison allows one to understand which rate was mainly perturbed, as well as the potency of the compounds (by relative changes of their microscopic rates) with respect to each other.

[5] = 2 μM Aβ42, 4-fold excess of compound

T2 sequence (P05067 672-713 limits assumed): as the sequence (P05067 672-713 limits assumed) above

With C=C(c1ccc(C(=O)O)cc1)c1cc2c(cc1C)C(C)(C)CCC2(C)C [bexarotene] the “effect on aggregation kinetics with 10% fibril seeds” value [1] was “no effect was observed”, the “delay in the time required for half-completion of the aggregation process” value [2] was 2 h and the “effect on aggregation kinetics with 5% pre-formed fibril seeds” value [3] was “concentration-dependent bexarotene-induced delay”. For the same compound, the “increase of time to half-completion compared to Aβ42 alone” value [4, 5] was “factor of two”, the “time to half-completion of the aggregation reaction” value [4, 5] was 4.50 ± 0.06 h and the “time for which unseeded aggregation was completely inhibited” value ([4]; 2 μM Aβ42, 10-fold excess) was 15 h. The “effect on secondary pathways (k2k+)” value ([4]; 5 μM Aβ42, 5-25 μM bexarotene) was “no (or very little) detectable effect”, the “primary nucleation rate constant kn” value ([4]; 5 μM Aβ42, 5-25 μM bexarotene) was “specifically decreased” and the “effect on Aβ42 aggregation” value ([4]; increasing concentrations of bexarotene) was “progressive delay”.
